# Results reported in PMC10500001, “Dual hypoxia-responsive supramolecular complex for cancer target therapy” (Nature Communications, 2023).
# Where “and” joins values, the source holds several entries; their conditions need not be identical. Equal entries are not always repeated.
# Columns and labels:
# [1] = Biosafety: blood routine and blood chemistry assays
# Description: Toxic effects are a barrier to overcome before efficient deliverability can be achieved with BE.
# For in vivo anticancer efficacy study, 1 × 10^6 PANC1 cells were injected subcutaneously into the right flanks of the BALB/c nude mice. To investigate the anticancer effects of SBE-β-CD@NMP-BE, the mice with tumor volumes at around 50 mm^3 were randomized into four groups (6 mice per group) and injected intravenously via tails with 200 μL of PBS, NMP-BE (5 mg/kg), SBE-β-CD (15 mg/kg) and NMP-BE@SBE-β-CD (20 mg/kg) every two days for 8 times and the tumor volumes for 14 days were continuously monitored. Tumor were measured by using a Vernier calipers and the volume (V) was calculated to be V = d^2 × D/2, where d is the shortest and the D is longest diameter of the tumor in mm respectively. […] Tumors were measured as mentioned above. To assess potential toxicities, mice were monitored for weight loss. Tumors were collected for H&E analysis and immunofluorescence staining. Major organs including heart, liver, spleen, lung, and kidney, were collected and stained with H&E for histopathologic analysis. To evaluate biosafety of SAC5A, blood samples were collected for blood chemistry assay and blood routine assay.
# PANC1 cells = experiment: CCK8 cytotoxicity of SAC5A and SBE-β-CD, 24 h; format: cell-based, human; details: for cell viability: 24 h, in % (unit assumed)
# Description: PANC1 cells (5 × 10^3 cells/well) were seeded into the 96-well plate and incubated overnight. They were treated with SAC5A or SBE-β-CD of different concentrations and incubated for 24 h under normoxic or hypoxic conditions, respectively. […] After a 6 h incubation under normoxic conditions, the culture medium was exchanged with fresh medium. Subsequently, the cells were incubated at 37 °C for 18 h under either normoxic or hypoxic conditions, respectively. And then, the culture medium was replaced with fresh medium and 10 μL cell counting kit-8 solution (C6005, US Everbright, Jiangsu, China). Following a 4 h incubation, the optical density was assessed at 450 nm employing a microplate reader.
# Supplementary Figure 19. The cytotoxicity of SAC5A and SBE-β-CD. (a) Cell viability
# Data are presented as mean ± SD (n = 6 biologically independent samples).
# [2] = tested on: PANC1 tumor-bearing BALB/c nude mice; experiment: In vivo anticancer efficacy study of NMP-BE@SAC5A; set-up: species or system mouse; details: for Tumor volume: SAC5A 15, NMP-BE 5, NMP-BE@SAC5A 20 mg/kg iv
# Description: After the tumor grows to a suitable size, the tumor was divided into small pieces and then subcutaneously inoculated into the right flank of other mice. After 10 d of inoculation, when the tumor volumes of mice were around 50 mm^3, PANC1-bearing BALB/c nude mice were separated randomly with a total of six mice in each group. […] On day 18 after injection, the mice were euthanized, and their tumors were collected. […] In addition, we also investigated the anticancer effects of NMP-BE@SBE-β-CD.
# (§1) Tumors were measured as mentioned above.
# [3] = tested on: PANC1 tumor-bearing BALB/c nude mice; experiment: In vivo anticancer effects of NMP and SAC5A; set-up: species or system mouse; details: for Tumor volume: Supplementary Fig.22a
# Description: Supplementary Figure 22. […] (a) Average […]
# presented as mean ± SD (n = 6 mice per group). P values are calculated by two-way […]
# Data are presented as mean ± SD ( n = 6 biologically independent samples ). P values are calculated by one-way ANOVA with Turkey’s multiple comparisons test: ns: no […]
# Note: (b) During the experiment, the tumor images were taken of PBS vs NMP, PBS vs SAC5A groups respectively. As the PBS group consisted of the same tumors, the tumor
# PANC1 tumor tissues = experiment: Histology of dissected tumors (H&E, TUNEL, Ki67); details: mouse, in vivo
# Description: The hematoxylin-eosin (H&E) staining and terminal deoxynucleotidyl transferase dUTP nick end labeling (TUNEL) tests were next carried out to evaluate the cell pathology changes and apoptosis in the tumors of every groups. […] Meanwhile, we verified the effects of different treatments on cancer cell proliferation by immunofluorescence Ki67 staining.
# as §1
# [4] = Competitive fluorescence titration of RhB@SAC5A with NMP-BE; details: binding of SAC5A to NMP-BE, 1:1 competitive binding, PBS 10 mM pH 7.4, 25 °C
# Description: Data are presented as mean ± SD (n = 3 biologically independent samples). Source data are provided as a Source Data file.
# The complexation of SAC5A with NMP-BE was measured by competitive fluorescence titrations. A mixed solution containing known amounts of reporter dye (RhB), host (SAC5A) and competitive guest (NMP-BE) was injected into 2.50 mL RhB and SAC5A solution in a quartz cuvette. Care was taken to keep the concentrations of dye and SAC5A constant in the course of titrations. The fluorescence intensity was measured (λex = 554 nm for RhB) before the first addition and after every addition. The association constant was obtained by fitting fluorescence intensity (λem = 575 nm for RhB) according to a 1:1 competitive binding model. The fitting of data from direct titrations and competitive titrations was performed in a nonlinear manner, and the fitting modules were downloaded from the website of Prof. Nau’s group (http://www.jacobs-university.de/ses/wnau) under the column of “Fitting Functions”.
compound,measurement,setting,value
"O=S(=O)(O)c1ccc(/N=N/c2cc3c(O)c(c2)Cc2cc(/N=N/c4ccc(S(=O)(=O)O)cc4)cc(c2O)Cc2cc(/N=N/c4ccc(S(=O)(=O)O)cc4)cc(c2O)Cc2cc(/N=N/c4ccc(S(=O)(=O)O)cc4)cc(c2O)Cc2cc(/N=N/c4ccc(S(=O)(=O)O)cc4)cc(c2O)C3)cc1 [SAC5A, sulfonated azocalix[5]arene]",ALP,"[1]; blood chemistry, individual mice 1-5, Fig.6h",192.3 U/L and 155.8 U/L and 154.8 U/L and 192.1 U/L and 150.9 U/L
same,ALT,"[1]; blood chemistry, individual mice 1-5, Fig.6i",40 U/L and 44.1 U/L and 53.2 U/L and 59.2 U/L and 46 U/L
same,AST,"[1]; blood chemistry, individual mice 1-5, Fig.6j",141.2 U/L and 161.4 U/L and 172.2 U/L and 182.6 U/L and 148.2 U/L
same,CRE,"[1]; blood chemistry, individual mice 1-5, Fig.6k",141.2 µmol/L and 161.4 µmol/L and 172.2 µmol/L and 182.6 µmol/L and 148.2 µmol/L
same,BUN,"[1]; blood chemistry, individual mice 1-5, Fig.6l",8.3 mmol/L and 8.7 mmol/L and 6.3 mmol/L
same,RBC,"[1]; blood routine, individual mice 1-5, Fig.6a",10.0 1012/L and 9.2 1012/L and 9.1 1012/L and 11.1 1012/L and 11.2 1012/L
same,MCHC,"[1]; blood routine, individual mice 1-5, Fig.6b",305 g/L and 300 g/L and 301 g/L and 299 g/L and 308 g/L
same,HCT,"[1]; blood routine, individual mice 1-5, Fig.6c",51.8% and 49.2% and 51% and 53.8% and 50.9%
same,MCV,"[1]; blood routine, individual mice 1-5, Fig.6d",48.4 fL and 48.1 fL and 48.2 fL and 48.5 fL and 49.1 fL
same,PLT,"[1]; blood routine, individual mice 1-5, Fig.6e",11.4 1011/L and 11.8 1011/L and 10.7 1011/L and 11.5 1011/L and 12.0 1011/L
same,RDW,"[1]; blood routine, individual mice 1-5, Fig.6f",14.3% and 14.9% and 13.6% and 13.3%
same,MPV,"[1]; blood routine, individual mice 1-5, Fig.6g",5.3 fL and 5.4 fL and 6 fL and 5.5 fL
same,"RBC, MCHC, HCT, MCV, PLT, RDW, MPV, ALP, ALT, AST, CRE, BUN levels versus PBS group",[1]; one-way ANOVA,no significance
same,"RBC, MCHC, HCT, MCV, PLT, RDW, MPV values",[1]; treated mice,small alteration
same,cell viability,"PANC1 cells; PANC1, Hypoxia, 10 μM",101.91 and 106.97 and 106.87 and 103.95 and 95.76 and 94.38
same,cell viability,"PANC1 cells; PANC1, Hypoxia, 20 μM",98.99 and 105.90 and 107.51 and 100.07 and 96.78 and 98.26
same,cell viability,"PANC1 cells; PANC1, Hypoxia, 40 μM",96.62 and 103.74 and 107.19 and 94.57 and 95.43 and 98.62
same,cell viability,"PANC1 cells; PANC1, Hypoxia, 100 μM",89.44 and 102.24 and 97.97 and 93.46 and 97.47 and 88.44
same,cell viability,"PANC1 cells; PANC1, Hypoxia, 200 μM",96.47 and 99.73 and 95.34 and 92.70 and 90.07 and 95.59
same,cell viability,"PANC1 cells; PANC1, Hypoxia, 400 μM",98.35 and 96.22 and 97.85 and 103.12 and 92.08 and 92.95
same,cell viability,"PANC1 cells; PANC1, Normoxia, 10 μM",94.32 and 96.61 and 94.68 and 98.32 and 94.21 and 96.48
same,cell viability,"PANC1 cells; PANC1, Normoxia, 20 μM",92.78 and 88.19 and 94.36 and 97.85 and 97.21 and 107.50
same,cell viability,"PANC1 cells; PANC1, Normoxia, 40 μM",88.98 and 89.46 and 94.68 and 94.21 and 93.73 and 87.87
same,cell viability,"PANC1 cells; PANC1, Normoxia, 100 μM",86.69 and 92.80 and 86.44 and 99.65 and 91.72 and 99.02
same,cell viability,"PANC1 cells; PANC1, Normoxia, 200 μM",96.38 and 94.98 and 93.23 and 105.44 and 89.58 and 94.49
same,cell viability,"PANC1 cells; PANC1, Normoxia, 400 μM",90.21 and 94.16 and 91.97 and 97.63 and 95.37 and 92.10
same,cytotoxicities,"PANC1 cells; PANC1 cells, 10 μM to 0.40 mM, normoxic and hypoxic",negligible
same,Mice weight,"[2]; Day 0, single mouse",18.5 g and 17.7 g and 16.0 g and 18.0 g and 17.5 g and 16.6 g
same,Tumor volume,"[2]; Day 0, single mouse",39.34 mm3 and 42.10 mm3 and 36.90 mm3 and 42.16 mm3 and 42.33 mm3 and 56.35 mm3
same,Mice weight,"[2]; Day 2, single mouse",14.6 g and 16.5 g and 17.5 g and 17.9 g and 18.5 g and 17.6 g
same,Tumor volume,"[2]; Day 2, single mouse",46.70 mm3 and 75.90 mm3 and 48.08 mm3 and 55.90 mm3 and 59.70 mm3 and 76.08 mm3
same,Tumor volume,"[2]; Day 4, single mouse",55.83 mm3 and 118.84 mm3 and 75.42 mm3 and 64.80 mm3 and 72.81 mm3 and 104.25 mm3
same,Mice weight,"[2]; Day 6, single mouse",16.3 g and 16.8 g and 17.8 g and 19.4 g and 19.1 g
same,Tumor volume,"[2]; Day 6, single mouse",73.60 mm3 and 175.66 mm3 and 110.64 mm3 and 99.97 mm3 and 116.56 mm3 and 152.05 mm3
same,Mice weight,"[2]; Day 8, single mouse",16.1 g and 19.1 g and 16.0 g and 17.6 g and 17.1 g and 18.7 g
same,Tumor volume,"[2]; Day 8, single mouse",97.53 mm3 and 181.96 mm3 and 126.04 mm3 and 134.13 mm3 and 98.89 mm3 and 192.89 mm3
same,Mice weight,"[2]; Day 10, single mouse",15.8 g and 18.5 g and 15.6 g and 17.5 g and 16.4 g and 18.7 g
same,Tumor volume,"[2]; Day 10, single mouse",142.07 mm3 and 265.92 mm3 and 173.37 mm3 and 226.57 mm3 and 159.78 mm3 and 251.75 mm3
same,Mice weight,"[2]; Day 12, single mouse",16.5 g and 19.0 g and 16.2 g and 18.3 g and 16.3 g and 18.5 g
same,Tumor volume,"[2]; Day 12, single mouse",165.62 mm3 and 298.12 mm3 and 264.30 mm3 and 338.22 mm3 and 196.07 mm3 and 282.53 mm3
same,Mice weight,"[2]; Day 14, single mouse",16.0 g and 18.0 g and 16.1 g and 18.7 g and 16.4 g and 16.2 g
same,Tumor volume,"[2]; Day 14, single mouse",268.77 mm3 and 498.25 mm3 and 328.38 mm3 and 404.85 mm3 and 346.37 mm3 and 404.41 mm3
same,Mice weight,"[2]; Day 16, single mouse",16.6 g and 18.4 g and 19.3 g and 16.3 g and 19.7 g
same,Tumor volume,"[2]; Day 16, single mouse",387.44 mm3 and 789.47 mm3 and 472.22 mm3 and 693.97 mm3 and 504.38 mm3 and 616.16 mm3
same,Mice weight,"[2]; Day 18, single mouse",16.3 g and 17.8 g and 17.5 g and 16.2 g and 19.7 g
same,Tumor volume,"[2]; Day 18, single mouse",532.86 mm3 and 970.26 mm3 and 525.48 mm3 and 748.96 mm3 and 671.75 mm3 and 704.93 mm3
same,anticancer effect,"[2]; PANC1-bearing BALB/c nude mice, iv every other day, 18 days",no anticancer effect
same,Tumor weight,"[2]; day mice were sacrificed (day 18), single mouse",287.7 mg and 279.3 mg and 561.1 mg and 306.5 mg and 287.3 mg and 306.9 mg
same,Tumor volume,"[3]; day 0, individual mice (n=6)",39.34 mm3 and 42.10 mm3 and 36.90 mm3 and 42.16 mm3
same,Tumor volume,"[3]; day 2, individual mice (n=6)",46.70 mm3 and 75.90 mm3 and 48.08 mm3 and 55.90 mm3
same,Tumor volume,"[3]; day 4, individual mice (n=6)",55.83 mm3 and 118.84 mm3 and 75.42 mm3 and 64.80 mm3
same,Tumor volume,"[3]; day 6, individual mice (n=6)",73.60 mm3 and 175.66 mm3 and 110.64 mm3 and 99.97 mm3
same,Tumor volume,"[3]; day 8, individual mice (n=6)",97.53 mm3 and 181.96 mm3 and 126.04 mm3 and 134.13 mm3
same,Tumor volume,"[3]; day 10, individual mice (n=6)",142.07 mm3 and 265.92 mm3 and 173.37 mm3 and 226.57 mm3
same,Tumor volume,"[3]; day 12, individual mice (n=6)",165.62 mm3 and 298.12 mm3 and 264.30 mm3 and 338.22 mm3
same,Tumor volume,"[3]; day 14, individual mice (n=6)",268.77 mm3 and 498.25 mm3 and 328.38 mm3 and 404.85 mm3
same,Tumor volume,"[3]; day 16, individual mice (n=6)",387.44 mm3 and 789.47 mm3 and 472.22 mm3 and 693.97 mm3
same,Tumor volume,"[3]; day 18, individual mice (n=6)",532.86 mm3 and 970.26 mm3 and 525.48 mm3 and 748.96 mm3
same,Tumor weight,"[3]; individual mice (n=6), Supplementary Fig.22c",306.9 mg and 287.7 mg and 279.3 mg and 561.1 mg and 306.5 mg and 287.3 mg
same,TUNEL apoptosis in tumors,PANC1 tumor tissues,negligible apoptosis
same,Ka,[4],(5.1 ± 0.5) × 10^6 M^−1
